# Patent publication US10401361B2, “Intracellular organelle peptide targeted enzyme substrates” (Marker Gene Technologies, Inc., priority 2009, dated 2019)
# System: mannosidase
# Experiment: Staining with targeted mannosidase substrates after incubation with mannosidase inhibitor
# Assay type: cell-based, human
# Details: 100 uM inhibitor, 1 day (Golgi) or 5 days (ER); substrate 20 uM, 4 hours; AG06173, FIG. 2
# Method: Normal, healthy human lung fibroblasts (Cell line AG06173, Coriell Institute for Medical Research, Camden, N.J.) were prepared according to example 17 and plated in an optical bottom 96 well plate at 1×10^4 cells/mL.
# Cells were then incubated at 37° C. and 5% CO2 in complete EMEM and incubated for 1 (Golgi) or 5 days (ER) at 37° C., 5% CO2 with or without the mannosidase inhibitor swainsonine at 100 uM. The appropriate targeted substrate for staining either the ER or Golgi was then applied at a final concentration of 20 uM and incubated for 4 hours at 37° C., 5% CO2.
# Following incubation the cells were washed in PBS and bathed in Opti-Klear™ Imaging Buffer (Marker Gene Technologies, Inc Eugene Oreg.) with or without nuclear stain Hoechst 33342. Cells were then imaged on an EVOS Auto-FL fluorescence microscope (Life Technologies) fitted with a TexasRed™ light cube.
compound,measurement,value
O[C@H]1[C@H]2[C@H](O)CCCN2C[C@H]1O [swainsonine],effect on mannosidase activity seen by targeted substrate staining,reduction in enzyme activity
